Kd, Km and κcat data for two compounds are collected here from patent US5763249A, “Antibody-mediated reduction of α-ketoamides” (The Regents of the University of California, priority 1991, dated 1998).

The term Kd denotes the constant that tells how readily two partners part at equilibrium. As a reminder, the Km is the concentration of substrate that gives half-maximal velocity.

In assay [1] the target is monoclonal antibody A5, specific for (raised against) the phosphonate hapten 3. Put plainly: Fluorescence quenching binding of inhibitor to antibody A5. The following applies: from fluorescence quenching experiments; inhibitor of the antibody-catalyzed reaction. On the procedure:
(§1) Greater than 25 turnovers were measured with no apparent change in Vmax.

The subject of assay [2] is monoclonal antibody A5, specific for (raised against) the phosphonate hapten 3. Description: Antibody A5-catalysed NaBH3CN-dependent reduction of ketoamide 1, steady-state kinetics (HPLC, Lineweaver Burk). Format: biochemical. The following applies: substrate ketoamide 1; 13μM antibody, 1mM NaBH3CN, 22° C, 50mM NaCl, 50mM MES buffer, 10% methanol. On the procedure: Monoclonal antibodies specific for the phosphonate 3 were purified to homogeneity by chromatography on protein-A coupled sepharose, as determined by polyacrylamide gel electrophoresis. Eight of these antibodies were assayed for their ability to reduce the ketoamide 1 by high performance liquid chromatography (HPLC). The (S)-(--)-α-methylbenzylamine group was incorporated into the ketoacid substrate to facilitate analysis of reaction specificity, it having previously been shown that antibodies specific for the phosphonate 3 are relatively insensitive to substitutions in the aliphatic linker. The ketoamide 1 was prepared by a modification of the method of Westerberg and coworkers (Westerberg, D.A., et aL, J. Med Chem. 1989, 32, 236) for the preparation of 4-nitrophenylpyruvic acid. […]
Consequently, all kinetic parameters were measured in the presence of 13μM antibody, 1mM NaBH3 CN at 22° C in 50mM NaCl, 50mM MES buffer. […] Initial reaction rates were determined by measuring the amounts of 1 and 2 (both diastereomers) relative to a p-cresol internal standard using analytical reverse-phase HPLC (Rainin CYNAMAX MICROSORB C18, a common silica-C18 HPLC column packing, with a continuous phase consisting of 40-80% of TFA/CH3 CN in 0.1% aqueous TFA).
as §1

For the compound `COP(=O)(O)Oc1ccc([N+](=O)[O-])cc1` [4-nitrophenyl methylphosphate], the Kd in assay [1] turned out to be 610 nM.
Consider `CC(NC(=O)C(=O)Cc1ccc([N+](=O)[O-])cc1)c1ccccc1` (stereo not drawn) [compound 1, 1-(p-nitrobenzyl)-2-(α-methyl-benzylamino)ethanedione], for which, in assay [2], the Km came to 1240 µM and the κcat was 0.104 min⁻¹.
